Key:
Experiment in all cases: relative viability (nuclei count vs DMSO), 5 days (fraction); higher = more cells survive
R406 + Crizotinib = compound: COc1cc(Nc2ncc(F)c(Nc3ccc4c(n3)NC(=O)C(C)(C)O4)n2)cc(OC)c1OC [R406] + C[C@@H](Oc1cc(-c2cnn(C3CCNCC3)c2)cnc1N)c1c(Cl)ccc(F)c1Cl [Crizotinib] (partner 1 µM)
Outline: (§1)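 One day after seeding in 1536-well plates, lung cancer cell lines were dosed by pin tool. Dosing was either single-drug or a fixed anchor-drug dose plus five library-drug doses (not always all listed) in √10 steps. After 5 days, nuclei were stained in one fix-and-stain step and counted on 4× images, and relative viability is the nuclei count of treated wells over that of vehicle wells, given as the median of duplicate plates.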

Daporinad + OSI-027 = compound: O=C(/C=C/c1cccnc1)NCCCCC1CCN(C(=O)c2ccccc2)CC1 [Daporinad] + COc1cccc2cc(-c3nc([C@H]4CC[C@H](C(=O)O)CC4)n4ncnc(N)c34)[nH]c12 [OSI-027] (partner 0.5 µM)
Outline: as §1

R406 + OSI-027 = compound: COc1cc(Nc2ncc(F)c(Nc3ccc4c(n3)NC(=O)C(C)(C)O4)n2)cc(OC)c1OC [R406] + COc1cccc2cc(-c3nc([C@H]4CC[C@H](C(=O)O)CC4)n4ncnc(N)c34)[nH]c12 [OSI-027] (partner 0.5 µM)
Outline: as §1

R406 + Decitabine = compound: COc1cc(Nc2ncc(F)c(Nc3ccc4c(n3)NC(=O)C(C)(C)O4)n2)cc(OC)c1OC [R406] + Nc1ncn([C@H]2C[C@H](O)[C@@H](CO)O2)c(=O)n1 [Decitabine] (partner 2 µM)
Outline: as §1

Cell Line | relative viability (R406 + Crizotinib; first compound 0.08 µM) | relative viability (R406 + Crizotinib; first compound 0.253 µM) | relative viability (R406 + Crizotinib; first compound 0.8 µM) | relative viability (R406 + Crizotinib; first compound 2.53 µM) | relative viability (R406 + Crizotinib; first compound 8 µM) | relative viability (Daporinad + OSI-027; first compound 0.0005 µM) | relative viability (Daporinad + OSI-027; first compound 0.001581 µM) | relative viability (Daporinad + OSI-027; first compound 0.005 µM) | relative viability (Daporinad + OSI-027; first compound 0.01581 µM) | relative viability (R406 + OSI-027; first compound 0.08 µM) | relative viability (R406 + OSI-027; first compound 0.253 µM) | relative viability (R406 + OSI-027; first compound 0.8 µM) | relative viability (R406 + OSI-027; first compound 2.53 µM) | relative viability (R406 + OSI-027; first compound 8 µM) | relative viability (R406 + Decitabine; first compound 0.08 µM) | relative viability (R406 + Decitabine; first compound 0.253 µM) | relative viability (R406 + Decitabine; first compound 0.8 µM) | relative viability (R406 + Decitabine; first compound 2.53 µM) | relative viability (R406 + Decitabine; first compound 8 µM)
BEN | 0.923 | 1.32 | 1.15 | 0.785 | 0.641 | 0.276 | 0.301 | 0.299 | 0.287 | 0.291 | 0.299 | 0.286 | 0.298 | 0.281 | 0.679 | 0.793 | 0.726 | 0.683 | 0.441
NCI-H23 | 0.458 | 0.607 | 0.571 | 0.439 | 0.285 | 0.544 | 0.472 | 0.637 | 0.545 | 0.588 | 0.647 | 0.602 |  | 0.269 | 0.258 | 0.307 | 0.314 | 0.308 | 0.177
201T | 0.994 | 1.06 | 1.03 | 1.05 | 0.974 | 0.745 | 0.612 | 0.794 | 0.795 | 0.974 | 0.762 | 0.705 | 0.683 | 0.517 | 0.838 | 0.847 | 0.861 | 0.839 | 0.586
NCI-H520 | 0.735 | 1.09 | 0.875 | 0.58 | 0.269 | 0.245 | 0.222 | 0.328 | 0.234 | 0.243 | 0.302 | 0.336 | 0.25 | 0.188 | 0.455 | 0.684 | 0.53 | 0.302 | 0.158
NCI-H727 | 0.866 | 0.852 | 0.898 | 0.714 | 0.301 | 0.603 | 0.606 | 0.622 | 0.519 | 0.712 | 0.829 | 0.641 | 0.304 | 0.537 | 0.919 | 1.16 | 0.854 | 0.872 | 0.847
HCC-15 | 0.837 | 1.01 | 0.834 |  | 0.635 | 0.669 | 0.807 | 0.789 | 0.779 | 0.701 | 0.928 | 0.832 | 0.505 | 0.439 | 0.636 | 0.788 | 0.687 | 0.603 | 0.389
ABC-1 | 1.24 | 1.38 | 1.19 | 0.841 | 0.311 | 0.485 | 0.472 | 0.704 | 0.517 | 0.554 | 0.477 | 0.531 | 0.341 | 0.304 | 1.02 | 1.21 | 1.03 | 0.793 | 0.736
LCLC-103H | 1.07 | 1.24 | 0.954 | 0.971 | 0.828 | 0.499 | 0.48 | 0.493 | 0.471 | 0.419 | 0.453 | 0.536 | 0.362 | 0.331 | 0.707 | 0.712 | 0.744 | 0.746 | 0.707
NCI-H460 | 0.829 | 1.09 | 1.16 |  | 0.441 | 0.754 | 0.762 | 0.73 | 0.697 | 0.621 | 0.587 | 1.13 | 0.288 | 0.111 | 0.426 | 0.596 | 0.758 | 0.0438 | 0.354
EPLC-272H | 0.798 | 1.07 | 1.09 | 0.533 | 0.49 | 0.243 | 0.298 | 0.316 | 0.365 | 0.275 | 0.291 | 0.253 | 0.203 | 0.229 | 0.354 | 0.391 | 0.436 | 0.26 | 0.21
